Results from PubChem BioAssay (NCI).
Values joined by “and” are separate entries in the source; they are usually repeats but may differ in a detail not shown here. Identical values can stand only once.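 Assay format: 96-well plates, 48-hour exposure. Abbreviation: GI50, concentration required for 50% inhibition of growth. Definition used: TGI = concentration required for complete inhibition of growth.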

Tested on: MDA-MB-468 breast
Experiment: NCI tumour cell line growth inhibition, 48 h

SMILES	GI50 [µM]	TGI
Nc1nc(Cl)nc2c1ncn2[C@@H]1O[C@H](COS(N)(=O)=O)[C@@H](O)[C@H]1O	0.0176	0.0468 µM and 0.0396 µM
COc1cc2nc(N3CCC[C@@H](NC4=CC(=O)c5ccccc5C4=O)C3)nc(N)c2cc1OC	1.81	3.77 µM
NS(=O)(=O)c1ccc(N2N=C(c3cccs3)CC2c2ccccc2O)cc1 (configuration not stated)	0.717	3.89 µM
CCCC(CCC)C(=O)OCC1(CO)C/C(=C\c2ccc(C(F)(F)F)cc2)C(=O)O1 (configuration not stated)	16.6	32.9 µM
CNC(=O)c1cncc(/C=C/c2c(Cl)cccc2Cl)c1	4.08	> 19.1 µM
N/C(=N\c1nc2c(Br)cccc2s1)C(Br)Br	2.57	9.69 µM
COc1ccc2c(c1)C=C1CSCC3=Cc4cc(OC)ccc4OC13O2	0.347	
COc1cc2c3c(n(CCCNCC4CC4)c(=O)c2cc1OC)-c1cc2c(cc1C3=O)OCO2	1.54	9.66 µM
Cc1ccc(S(=O)(=O)Nc2cc(Sc3ccccc3)c(O)c3ccccc23)cc1	1.38	3.36 µM
COc1ccc(CN=C(N)N=C(N)N)cc1OC	47.6	477 µM
COc1cc(NC(=O)c2cc(O)c(C/C=C(\C)CCC=C(C)C)c(O)c2)cc2c1O[C@]1(C)CC[C@@H](O)C(C)(C)[C@H]1C2	2	8.08 µM
CCCCN(CCCC)CCC(O)c1cc2ccc(C(F)(F)F)cc2c2cc(C(F)(F)F)ccc12 (configuration not stated)	1.68	3.46 µM
CN(C)N=Nc1nn(C(=O)Nc2ccc(Cc3ccccc3)cc2)c2ccccc12	2.94	> 100 µM
Oc1ccc(O)c2c1C1(Cl)C(Cl)=C(Cl)C2(Cl)C1(Cl)Cl	3.71	12.8 µM
O=[N+]([O-])c1cc2c(ccc3occc32)o1	3.18	17.1 µM
CCc1nc(N)nc(N)c1C#CC(C)c1cc(-c2ccnc(C)c2)c2oc(C)nc2c1 (configuration not stated)	0.103	3 µM
COC(=O)Nc1nc2ccc(S(=O)(=O)c3ccc(NC(=O)Nc4cc(C(F)(F)F)ccc4F)cc3)cc2[nH]1	> 25	> 25 µM
O=C(Cn1c2ccccc2c2ccncc21)N/N=C\c1ccc2ccccc2c1	24.4	65.5 µM
O=C1NC(SCc2ccc(F)cc2)=N/C1=C/c1cccc(OCc2ccc(Cl)cc2)c1	15.8	> 100 µM
O=CN1N=C(c2ccc(Nc3ccnc4cc(Cl)ccc34)cc2)CC1c1ccc(Cl)cc1 (configuration not stated)	0.318	8.33 µM
Nc1ccc(-c2nnc(SCc3ccc(O)c4ncccc34)n2-c2ccccc2)cc1	0.0358	1.85 µM
NCCSC(C[N+](=O)[O-])c1ccccc1Cl (configuration not stated)	2.38	6.5 µM
CN(C)c1ncnc2c1ccn2C1OC(CO)C(O)C1O (configuration not stated)	0.231	1 µM
Cc1ccccc1NC(=O)c1cc2ccccc2cc1O	2.64	7.89 µM
